Common to all, as to assay type: in vivo
Test [1] deals with cat flea (Ctenocephalides felis Bouche). In words: Test E: control of cat flea on orally dosed CD-1 mouse. The conditions noted are these: 10 mg/kg oral, fleas applied 2 h after dosing, mortality 48 hours after flea application. As for the experimental part:
For evaluating control of the cat flea (Ctenocephalides felis Bouche), a CD-1® mouse (about 30 g, male, obtained from Charles River Laboratories, Wilmington, Mass.) was orally dosed with a test compound in an amount of 10 mg/kg solubilized in propylene glycol/glycerol formal (60:40). Two hours after oral administration of the test compound, approximately 8 to 16 adult fleas were applied to each mouse. The fleas were then evaluated for mortality 48 hours after flea application to the mouse.

In test [2] the test system is western flower thrips (Frankliniella occidentalis). In words: Test D: control of western flower thrips on Soleil bean plant, contact and/or systemic. The conditions noted are these: 6 days, 25° C. As to the method:
(§1) Test compounds were formulated using a solution containing 10% acetone, 90% water and 300 ppm X-77™ Spreader Lo-Foam Formula non-ionic surfactant containing alkylarylpolyoxyethylene, free fatty acids, glycols and isopropanol (Loveland Industries, Inc. Greeley, Colo., USA). The formulated compounds were applied in 1 mL of liquid through a SUJ2 atomizer nozzle with 1/8 JJ custom body (Spraying Systems Co. Wheaton, Ill., USA) positioned 1.27 cm (0.5 inches) above the top of each test unit. All experimental compounds in these tests were sprayed at 250 and/or 50 ppm, and the test was replicated three times. After spraying of the formulated test compound, each test unit was allowed to dry for 1 h and then a black, screened cap was placed on top. The test units were held for 6 days in a growth chamber at 25° C. and 70% relative humidity. Plant feeding damage was then visually assessed based on foliage consumed and a pest mortality rating was also counted and calculated for each test unit.
For evaluating control of the western flower thrips (Frankliniella occidentalis) through contact and/or systemic means, the test unit consisted of a small open container with a 5-7 day old Soleil Bean plant inside. Test compounds were formulated and sprayed at 250 and/or 50 ppm, and the test was replicated three times as described for Test A. After spraying, the test units were allowed to dry for 1 hour and then 22-27 adult thrips were added to each unit and then a black, screened cap was placed on top. The test units were held for 6 days at 25° C. and 45-55% relative humidity. A mortality rating was assessed along with a plant damage rating for each test unit.

Test [3] relates to diamondback moth (Plutella xylostella). Put plainly: Test A: control of diamondback moth on radish plant, foliar spray. The conditions noted are these: sprayed at 250 and/or 50 ppm, 6 days, 25° C.; no asterisk (not limited to 250 ppm).
Text: For evaluating control of diamondback moth (Plutella xylostella) the test unit consisted of a small open container with a 12-14-day-old radish plant inside. This was pre-infested with about 50 neonate larvae that were dispensed into the test unit via corn cob grits using a bazooka inoculator. The larvae moved onto the test plant after being dispensed into the test unit.
as §1

The subject of test [4] is fall armyworm (Spodoptera frugiperda). Put plainly: Test B: control of fall armyworm on corn (maize) plant, foliar spray. The conditions noted are these: sprayed at 250 and/or 50 ppm; no asterisk (not limited to 250 ppm). As to the method: as §1
For evaluating control of fall armyworm (Spodoptera frugiperda) the test unit consisted of a small open container with a 4-5-day-old corn (maize) plant inside. This was pre-infested (using a core sampler) with 10-15 1-day-old larvae on a piece of insect diet. Test compounds were formulated and sprayed at 250 and/or 50 ppm as described for Test A and replicated three times. After spraying, the test units were maintained in a growth chamber and then the control efficacy was rated for each test unit as described for Test A.

[5] abbreviates: sprayed at 250 and/or 50 ppm, no asterisk (not limited to 250 ppm).
Where [6] appears, read: asterisk: observed only at 250 ppm.

For `O=C(NCc1ccccn1)c1ccc(C2=NOC(c3cc(Cl)cc(Cl)c3)(C(F)(F)F)C2)c2ccccc12` (stereo not shown) [Compound 2], the flea mortality in test [1] is recorded as ≥ 30%. Further, the “control efficacy (20% or less feeding damage or 80% or more mortality)” value in test [2] (setting [5]), in test [3] and in test [4] was “very good to excellent levels of control efficacy” throughout.

Regarding `O=C(N[C@H]1CCc2ccccc21)c1ccc(C2=NOC(c3cc(Cl)cc(Cl)c3)(C(F)(F)F)C2)c2ccccc12` (stereo partly shown) [Compound 39], the “control efficacy (20% or less feeding damage or 80% or more mortality)” value in test [2] (setting [6]), in test [3] and in test [4] was “very good to excellent levels of control efficacy” in each case.

Consider `COCCNC(=O)c1ccc(C2=NOC(c3cc(Cl)cc(Cl)c3)(C(F)(F)F)C2)c2ccccc12` (stereo not shown) [Compound 41], for which the “control efficacy (20% or less feeding damage or 80% or more mortality)” value in test [2] (setting [5]), in test [3] and in test [4] was “very good to excellent levels of control efficacy” each time.

As to `CCOC(=O)CNC(=O)c1ccc(C2=NOC(c3cc(Cl)cc(Cl)c3)(C(F)(F)F)C2)c2ccccc12` (stereo not shown) [Compound 42], the “control efficacy (20% or less feeding damage or 80% or more mortality)” value in test [2] (setting [5]), in test [3] and in test [4] was “very good to excellent levels of control efficacy” in each case.

For the molecule `O=C(NNc1ccccc1)c1ccc(C2=NOC(c3cc(Cl)cc(Cl)c3)(C(F)(F)F)C2)c2ccccc12` (stereo not shown) [Compound 46], the “control efficacy (20% or less feeding damage or 80% or more mortality)” value in test [2] (setting [6]), in test [3] and in test [4] was “very good to excellent levels of control efficacy” each time.

For the molecule `COC(=O)[C@@H](NC(=O)c1ccc(C2=NOC(c3cc(Cl)cc(Cl)c3)(C(F)(F)F)C2)c2ccccc12)C(C)C` (stereo partly shown) [Compound 49], the “control efficacy (20% or less feeding damage or 80% or more mortality)” value in test [2] (setting [5]), in test [3] and in test [4] was “very good to excellent levels of control efficacy” each time.

For `O=C(CNC(=O)c1ccc(C2=NOC(c3cc(Cl)cc(Cl)c3)(C(F)(F)F)C2)c2ccccc12)NCC(F)(F)F` (stereo not shown) [Compound 51], the “control efficacy (20% or less feeding damage or 80% or more mortality)” value in test [2] (setting [5]), in test [3] and in test [4] was “very good to excellent levels of control efficacy” throughout.

For `O=C(NCc1ccccn1)c1ccc(C2=NOC(c3cc(Cl)cc(Cl)c3)(C(F)(F)F)C2)c2ccncc12` (stereo not shown) [Compound 104, 5-[5-(3,5-dichlorophenyl)-4,5-dihydro-5-(trifluoromethyl)-3-isoxazolyl]-N-(2-pyridinylmethyl)-8-isoquinolinecarboxamide], the “control efficacy (20% or less feeding damage or 80% or more mortality)” value in test [2] (setting [5]), in test [3] and in test [4] was “very good to excellent levels of control efficacy” throughout.

These data come from patent US8231888B2, “Isoxazolines for controlling invertebrate pests” (priority 2005, dated 2012).
